According to article PMC9232501, “Results of the phase I CCTG IND.231 trial of CX-5461 in patients with advanced solid tumors enriched for DNA-repair deficiencies” (Nature Communications, 2022):
Values joined by “and” are separate entries in the source; they are usually repeats but may differ in a detail not shown here. Equal values may be shown once.

Tested on: HCT116 cells
Assay: HCT116 cytotoxicity (WST-1 assay) with and without UVA radiation
Format: cell-based, Human
Conditions: for potentiation of UVA-induced cytotoxicity: UV 5 mJ/cm^2 and 125 mJ/cm^2; for WST-1 raw signal (Figure 5d) / WST-1 raw signal (Figure 5b) / WST-1 raw signal (Figure 5e): replicates
Experimental: Fig. 5 Comparison of G4 ligand photosensitization. […] Vertical axis, fractional survival, horizontal axis log10 drug concentration (M) (f) Representative images of CPD immunofluorescent staining under UV and drug treatment conditions for U2OS cells, quantified from biological duplicates in (g) (h) Scale bar = 100um. U2OS cells were treated with drug or vehicle control, then immediately irradiated with UVA 125 mJ/cm^2; and fixed 1 h later for immunofluorescence staining with CPD antibody. g Distribution of mean intensity of CPD level per cell (total n = in labels), with two biological repeats per condition. Vertical axis, mean CPD intensity per cell, horizontal axis, conditions (h) WT or KO XPA HAP1 cells assayed for cytotoxicity. Vertical axis, fractional survival (WST-1 assay). The horizontal axis, log10 drug concentration (M). Error bars = standard deviation of the mean. Three biological repeats per condition.
Human epidermal keratinocytes (HEKa) cells were sourced from Thermo Fisher Scientific, and were grown in EpiLife™ Medium with HKGS. HAP WT and XPA knockout cell lines (Horizon Discovery) were cultured in IMDM, 10% FCS. Human HCT116 cells, U2OS cells (ATCC) were grown in McCoy’s 5 A medium with 10% FBS and L-glutamine. All cell lines are mycoplasma free and have been authenticated by STR or SNP profiling. CX-5461 was provided by Senhwa Biosciences, Inc. PDS is from Sigma-Aldrich, BRACO-19 from Alfa Chemistry, PhENDC3 is from Sigma-Aldrich, γ -H2AX antibody from Abcam (1:1000 for IF) and CPD antibody (1:1500) from Cosmo Bio Ltd. (Catalog number: CAC-NM-DAD-001). The WST-1 assay was performed as previously described, γ H2AX foci staining was performed as previously described. Immunofluorescence staining of CPD was performed according to the protocol from the manufacturer (Cosmo Bio Ltd).

SMILES: CN(C)c1ccc(Nc2c3ccc(NC(=O)CCN4CCCC4)cc3nc3cc(NC(=O)CCN4CCCC4)ccc23)cc1 [BRACO-19]
- potentiation of UVA-induced cytotoxicity: not
- WST-1 raw signal (Figure 5d) (conc 1.31e-6, 5mJ/cm2 UV): 2.4666 and 1.6857
- WST-1 raw signal (Figure 5d) (conc 1.31e-6, 125mJ/cm2 UV): 1.7146 and 2.5235
- WST-1 raw signal (Figure 5d) (conc 1.31e-6, no UV): 1.0028 and 1.1127 and 1.1944
- WST-1 raw signal (Figure 5d) (conc 2.63e-6, 5mJ/cm2 UV): 1.5923 and 2.1232
- WST-1 raw signal (Figure 5d) (conc 2.63e-6, 125mJ/cm2 UV): 1.7241 and 1.9009
- WST-1 raw signal (Figure 5d) (conc 2.63e-6, no UV): 1.0332 and 1.1578 and 1.2506
- WST-1 raw signal (Figure 5d) (conc 5.25e-6, 5mJ/cm2 UV): 2.5376 and 1.7122
- WST-1 raw signal (Figure 5d) (conc 5.25e-6, 125mJ/cm2 UV): 1.8158 and 1.6795
- WST-1 raw signal (Figure 5d) (conc 5.25e-6, no UV): 0.8877 and 1.1208 and 1.1731
- WST-1 raw signal (Figure 5d) (conc 1.05e-5, 5mJ/cm2 UV): 2.0499 and 1.7849
- WST-1 raw signal (Figure 5d) (conc 1.05e-5, 125mJ/cm2 UV): 1.734 and 1.5629
- WST-1 raw signal (Figure 5d) (conc 1.05e-5, no UV): 0.9118 and 1.1353 and 1.1139
- WST-1 raw signal (Figure 5d) (conc 2.1e-5, 5mJ/cm2 UV): 2.2151 and 1.3748
- WST-1 raw signal (Figure 5d) (conc 2.1e-5, 125mJ/cm2 UV): 1.3993 and 1.3857
- WST-1 raw signal (Figure 5d) (conc 2.1e-5, no UV): 0.9051 and 1.0979 and 1.0693
- WST-1 raw signal (Figure 5d) (conc 4.2e-5, 5mJ/cm2 UV): 1.7663 and 1.2587
- WST-1 raw signal (Figure 5d) (conc 4.2e-5, 125mJ/cm2 UV): 1.2502 and 1.0049
- WST-1 raw signal (Figure 5d) (conc 4.2e-5, no UV): 0.8968 and 1.0934 and 1.1351
- WST-1 raw signal (Figure 5d) (conc 8.4e-5, 5mJ/cm2 UV): 0.4969 and 0.3888
- WST-1 raw signal (Figure 5d) (conc 8.4e-5, 125mJ/cm2 UV): 0.4246 and 0.5991
- WST-1 raw signal (Figure 5d) (conc 8.4e-5, no UV): 0.3873 and 0.5407 and 0.5015
- WST-1 raw signal (Figure 5d) (conc 1.64E-07, 5mJ/cm2 UV): 2.3685 and 1.9812
- WST-1 raw signal (Figure 5d) (conc 1.64E-07, 125mJ/cm2 UV): 1.617 and 1.4273
- WST-1 raw signal (Figure 5d) (conc 1.64E-07, no UV): 1.0063 and 1.0872 and 1.153
- WST-1 raw signal (Figure 5d) (conc 3.28E-07, 5mJ/cm2 UV): 1.3974 and 1.689
- WST-1 raw signal (Figure 5d) (conc 3.28E-07, 125mJ/cm2 UV): 1.2981 and 1.6967
- WST-1 raw signal (Figure 5d) (conc 3.28E-07, no UV): 0.8955 and 1.1379 and 1.1636
- WST-1 raw signal (Figure 5d) (conc 6.56E-07, 5mJ/cm2 UV): 2.2078 and 2.2342
- WST-1 raw signal (Figure 5d) (conc 6.56E-07, 125mJ/cm2 UV): 1.8184 and 2.0816
- WST-1 raw signal (Figure 5d) (conc 6.56E-07, no UV): 1.0072 and 1.1785 and 1.064

SMILES: CN1CCC[C@H]1CCNC(=O)c1cn2c3c(c(N4CCC(c5cnccn5)C4)c(F)cc3c1=O)Oc1cc3ccccc3cc1-2 (stereo partly shown) [CX-3543, quarfloxin]
- potentiation of UVA-induced cytotoxicity: Strong potentiation
- WST-1 raw signal (Figure 5b) (conc 1.00E-07, 5mJ/cm2 UV): 0.1176 and 0.1409 and 0.1492
- WST-1 raw signal (Figure 5b) (conc 1.00E-07, 125mJ/cm2 UV): 0.1326 and 0.1388 and 0.1325
- WST-1 raw signal (Figure 5b) (conc 1.00E-07, no UV): 0.3065 and 0.2985 and 0.3333
- WST-1 raw signal (Figure 5b) (conc 1.25E-08, 5mJ/cm2 UV): 0.2437 and 0.3248 and 0.2269
- WST-1 raw signal (Figure 5b) (conc 1.25E-08, 125mJ/cm2 UV): 0.1256 and 0.1309 and 0.1293
- WST-1 raw signal (Figure 5b) (conc 1.25E-08, no UV): 0.9466 and 1.0534 and 1.1298
- WST-1 raw signal (Figure 5b) (conc 1.56E-09, 5mJ/cm2 UV): 0.8994 and 0.9603 and 1.0971
- WST-1 raw signal (Figure 5b) (conc 1.56E-09, 125mJ/cm2 UV): 0.4201 and 0.4656 and 0.3751
- WST-1 raw signal (Figure 5b) (conc 1.56E-09, no UV): 1.1359 and 1.1204 and 1.1484
- WST-1 raw signal (Figure 5b) (conc 2.00E-07, 5mJ/cm2 UV): 0.1365 and 0.1282 and 0.1322
- WST-1 raw signal (Figure 5b) (conc 2.00E-07, 125mJ/cm2 UV): 0.1395 and 0.1322 and 0.1311
- WST-1 raw signal (Figure 5b) (conc 2.00E-07, no UV): 0.2081 and 0.2189 and 0.1938
- WST-1 raw signal (Figure 5b) (conc 2.50E-08, 5mJ/cm2 UV): 0.2095 and 0.1617 and 0.1535
- WST-1 raw signal (Figure 5b) (conc 2.50E-08, 125mJ/cm2 UV): 0.1433 and 0.1378 and 0.1358
- WST-1 raw signal (Figure 5b) (conc 2.50E-08, no UV): 0.8495 and 0.8987 and 0.779
- WST-1 raw signal (Figure 5b) (conc 3.13E-09, 5mJ/cm2 UV): 0.6485 and 0.7419 and 0.9883
- WST-1 raw signal (Figure 5b) (conc 3.13E-09, 125mJ/cm2 UV): 0.2369 and 0.2535 and 0.2676
- WST-1 raw signal (Figure 5b) (conc 3.13E-09, no UV): 1.0174 and 1.1372 and 1.1113
- WST-1 raw signal (Figure 5b) (conc 3.91E-10, 5mJ/cm2 UV): 1.0118 and 0.9721 and 1.5038
- WST-1 raw signal (Figure 5b) (conc 3.91E-10, 125mJ/cm2 UV): 0.8661 and 1.1363 and 0.97
- WST-1 raw signal (Figure 5b) (conc 3.91E-10, no UV): 1.0197 and 1.049 and 1.1065
- WST-1 raw signal (Figure 5b) (conc 5.00E-08, 5mJ/cm2 UV): 0.1533 and 0.1449 and 0.1376
- WST-1 raw signal (Figure 5b) (conc 5.00E-08, 125mJ/cm2 UV): 0.1545 and 0.1405 and 0.1347
- WST-1 raw signal (Figure 5b) (conc 5.00E-08, no UV): 0.5561 and 0.5613 and 0.5776
- WST-1 raw signal (Figure 5b) (conc 6.25E-09, 5mJ/cm2 UV): 0.5204 and 0.5393 and 0.4087
- WST-1 raw signal (Figure 5b) (conc 6.25E-09, 125mJ/cm2 UV): 0.1582 and 0.1598 and 0.1609
- WST-1 raw signal (Figure 5b) (conc 6.25E-09, no UV): 1.0374 and 1.1818 and 1.0522
- WST-1 raw signal (Figure 5b) (conc 7.81E-10, 5mJ/cm2 UV): 0.7587 and 1.1105 and 1.4362
- WST-1 raw signal (Figure 5b) (conc 7.81E-10, 125mJ/cm2 UV): 0.5029 and 0.7057 and 0.876
- WST-1 raw signal (Figure 5b) (conc 7.81E-10, no UV): 1.0762 and 1.1392 and 1.1311

SMILES: C[n+]1cc(NC(=O)c2ccc3ccc4ccc(C(=O)Nc5cc6ccccc6[n+](C)c5)nc4c3n2)cc2ccccc21 [PhenDC3]
- potentiation of UVA-induced cytotoxicity: not
- WST-1 raw signal (Figure 5e) (conc 1.47e-6, 5mJ/cm2 UV): 2.5247 and 1.9665 and 1.5331
- WST-1 raw signal (Figure 5e) (conc 1.47e-6, 125mJ/cm2 UV): 2.2675 and 1.9844 and 1.1454
- WST-1 raw signal (Figure 5e) (conc 1.47e-6, no UV): 1.3654 and 1.4935 and 1.7286
- WST-1 raw signal (Figure 5e) (conc 2.94e-6, 5mJ/cm2 UV): 2.08 and 2.2029 and 1.6368
- WST-1 raw signal (Figure 5e) (conc 2.94e-6, 125mJ/cm2 UV): 2.4823 and 2.523 and 1.7852
- WST-1 raw signal (Figure 5e) (conc 2.94e-6, no UV): 1.5405 and 2.117 and 2.002
- WST-1 raw signal (Figure 5e) (conc 5.88e-6, 5mJ/cm2 UV): 2.4037 and 2.2391 and 1.6885
- WST-1 raw signal (Figure 5e) (conc 5.88e-6, 125mJ/cm2 UV): 2.7023 and 2.4336 and 1.5283
- WST-1 raw signal (Figure 5e) (conc 5.88e-6, no UV): 1.7 and 1.9567 and 2.1724
- WST-1 raw signal (Figure 5e) (conc 1.18e-5, 5mJ/cm2 UV): 2.1812 and 1.9738 and 1.7421
- WST-1 raw signal (Figure 5e) (conc 1.18e-5, 125mJ/cm2 UV): 2.7227 and 2.5018 and 2.3037
- WST-1 raw signal (Figure 5e) (conc 1.18e-5, no UV): 1.7648 and 1.8678 and 1.9824
- WST-1 raw signal (Figure 5e) (conc 2.35e-5, 5mJ/cm2 UV): 0.565 and 0.559 and 0.471
- WST-1 raw signal (Figure 5e) (conc 2.35e-5, 125mJ/cm2 UV): 0.7287 and 0.5914 and 0.574
- WST-1 raw signal (Figure 5e) (conc 2.35e-5, no UV): 0.8347 and 0.741 and 0.6679
- WST-1 raw signal (Figure 5e) (conc 4.7e-5, 5mJ/cm2 UV): 0.2348 and 0.2033 and 0.2076
- WST-1 raw signal (Figure 5e) (conc 4.7e-5, 125mJ/cm2 UV): 0.1706 and 0.1911 and 0.2089
- WST-1 raw signal (Figure 5e) (conc 4.7e-5, no UV): 0.2669 and 0.2647 and 0.2402
- WST-1 raw signal (Figure 5e) (conc 9.4e-5, 5mJ/cm2 UV): 0.1394 and 0.1367 and 0.1266
- WST-1 raw signal (Figure 5e) (conc 9.4e-5, 125mJ/cm2 UV): 0.1442 and 0.1281 and 0.1307
- WST-1 raw signal (Figure 5e) (conc 9.4e-5, no UV): 0.1612 and 0.1272 and 0.1365
- WST-1 raw signal (Figure 5e) (conc 1.84E-07, 5mJ/cm2 UV): 1.7037 and 1.2125 and 1.5201
- WST-1 raw signal (Figure 5e) (conc 1.84E-07, 125mJ/cm2 UV): 1.8011 and 1.8559 and 1.4258
- WST-1 raw signal (Figure 5e) (conc 1.84E-07, no UV): 1.321 and 1.2585 and 1.2601
- WST-1 raw signal (Figure 5e) (conc 3.67E-07, 5mJ/cm2 UV): 1.8869 and 1.5993 and 1.6043
- WST-1 raw signal (Figure 5e) (conc 3.67E-07, 125mJ/cm2 UV): 2.4917 and 1.8093 and 1.3054
- WST-1 raw signal (Figure 5e) (conc 3.67E-07, no UV): 1.2806 and 1.3851 and 1.3161
- WST-1 raw signal (Figure 5e) (conc 7.34E-07, 5mJ/cm2 UV): 1.9796 and 1.8361 and 1.8217
- WST-1 raw signal (Figure 5e) (conc 7.34E-07, 125mJ/cm2 UV): 2.3975 and 1.9653 and 1.3571
- WST-1 raw signal (Figure 5e) (conc 7.34E-07, no UV): 1.5573 and 1.2554 and 1.5011

SMILES: C[n+]1ccc(-c2c3nc(c(-c4cc[n+](C)cc4)c4ccc([nH]4)c(-c4cc[n+](C)cc4)c4nc(c(-c5cc[n+](C)cc5)c5ccc2[nH]5)C=C4)C=C3)cc1 [TMPYP4]
- potentiation of UVA-induced cytotoxicity: not
